Results on two substances are retold here after patent US20210267731A1, “COMPOSITION FOR TREATING AND PREVENTING GINGIVOPERIODONTITIS OR PERI-IMPLANTITIS, AND INTERDENTAL BRUSH COATED WITH SAME” (NIBEC CO., LTD., priority 2018, published 2021).

Ends that are not written are not given here.

Assay [1] can be described thus: Test of lipopolysaccharide removal effect of nonionic surfactants. Conditions: compared with other nonionic surfactants (polyoxyethylene, Tween series, span series). From the text: Octyl phenol ethoxylate (C14H22O (C2H4O)n) is a nonionic surfactant, has a hydrophilic polyethylene oxide group and a hydrophobic 4-(1,1,3,3-tetramethylbutyl)-phenyl group, and is widely used as a detergent in the biochemical field. In immunostaining, octyl phenol ethoxylate permeabilizes the cell membrane at a concentration of 0.1 to 0.5%, and permeabilizes the cell wall of bacteria at a concentration of 1%. In the present invention, octyl phenol ethoxylate has an effect of removing lipopolysaccharide (LPS). Other nonionic surfactants widely used in this technical field include polyoxyethylene, Tween series, span series and the like.

Assay [2] relates to Prevotella intermedia. The assay can be described thus: Antimicrobial experiment, liquid dilution method, colony count. The class given is cell-based. Here is the method: In order to determine the effect of the composition containing the antimicrobial peptide, an antimicrobial experiment was conducted according to the liquid dilution method. Prevotella intermedia, which is a bacterium causative of periodontal disease, was cultured in Tryptic soy broth. The above strain was cultured until the absorbance at 620 nm reached 1, and then the cells were collected and used in the experiment. The cells were diluted with PBS, bacteria were plated at 10^5-10^7/mL on a tryptic soy agar (TSA) plate, and incubated at 37° C. for 24 hours. In order to measure the antimicrobial activity of the peptides using a liquid dilution method, 1 ml of distilled water was added to a microtube, 10 µl of diluted bacterial solution was added thereto and 50 μl of the product was plated on a plate medium which was used as a control group.
After treatment with 50 μg/ml and 100 μg/ml of the peptide of SEQ ID NO: […] and 100 μg/ml of the peptide of SEQ ID NO: 2 at 37° C. for 1 hour, 50 μl of each of the product was plated and the number of colonies that formed was counted. In addition, the antimicrobial activity of the composition of Example 1, a composition containing the composition of Example 1 and the peptide of SEQ ID NO: 1, and a composition containing the composition of Example 1 and the peptide of SEQ ID NO: 2 was measured in the same manner as above.

For the substance octyl phenol ethoxylate, the lipopolysaccharide removal effect entry in assay [1] is given as “greatest lipopolysaccharide removal effect”.
Consider “GKSST RGRKS CRRKK-NH2 (GKSSTRGRKSCRRKK-NH2) [peptide of SEQ ID NO: 2, antimicrobial peptide]”, for which, in assay [2] (among peptides of SEQ ID NO: 1 to SEQ ID NO: 4), the antimicrobial activity result is given as “best antimicrobial activity”. Moreover, the “antimicrobial activity of peptide (colonies formed)” value in assay [2] (peptide at 100 μg/ml, 37° C., 1 hour, FIG. 6) is recorded as “the highest”.
